Marks after values point to notes of the source that are not given here.
Key:
[1] = system: membrane receptors of human breast cancer cells; experiment: Receptor binding affinity for human breast cancer cell membranes, labelled [D-Trp6]LHRH as ligand
Procedure: Affinity for peptides to human breast cancer cell membranes is determined by using labelled LHRH and [D-Trp⁶]LHRH. The assay is carried out similarly to that described by T. Kadar et al., Proc. Natl. Acad. Sci. USA, 85, 890-894 (1988) and M. Fekete et al., Endocrinology, 124, 946-955 (1989).
(§1) Table 2 presents the antiovulatory activity and human breast cancer cell membrane receptor binding affinity of the claimed compounds having LHRH-inhibiting properties. The inhibitory action was determined in vivo, in 4-day cycling rats as described [A. Corbin and C. W. Beattie, Endocr. Res. Commun., 2, 1-23 (1975)].

[2] = system: MCF-7 human breast cancer cell line; experiment: Cytotoxicity test: inhibition of 3H-thymidine incorporation into DNA; format: cell-based
Procedure: Ability of peptides of Formula I to inhibit incorporation of [³H]thymidine into DNA of monolayer cultures the human mammary tumor cell line MCF-7 is assayed as described [V. K. Sondak et al., Cancer Research, 44, 1725-1728 (1984); F. Holzel et al., J. Cancer Res. Clin. Oncol. 109, 217-226 (1985); M. Albert et al., J. Cancer Res. Clin. Oncol. 109, 210-216 (1985)].
200,000 cells in 200 µl of […] + 2% CFBS were incubated with 1,5 or 10 µg cytotoxic analogs for 3 hours or 23 hours then 1 µCi ³H-thymidine added and incubated an additional 60 min. DNA extracted with 1 N perchloric acid and the radioactivity measured.

[3] = system: 4-day-cycling rats; experiment: In vivo antiovulatory activity; conditions: 10 µg per rat
Procedure: This activity of the peptides is determined in 4-day-cycling rats as described [A. Corbin and C. W. Beattie, Endocr. Res. Commun., 2, 1-23 (1975)].
as §1

[4] = system: human mammary cell line MDA-MB-231; conditions: 10µg dose; cited from earlier work
[5] = system: rat pituitary cell; conditions: LH-releasing activity compared to that produced by 3 nM LH-RH; peptide infused for 3 minutes
Procedure: Ability of compounds to influence LH release in vitro is assayed by using a superfused rat pituitary cell system [S. Vigh and A. V. Schally, Peptides, 5 Suppl.
LH-releasing effect of compounds is determined as follows: each peptide is perfused through the cells for 3 min (1 ml perfusate) at 20-100 pM. LH content of 1 ml fractions collected is determined by radioimmunoassay (RIA). Potency of peptides is compared to that of 3 nM LHRH perfused similarly.
The peptide was infused for 3 minutes at various concentration, and the amount of LH released was compared to that released by 3 nM LHRH.

[6] = Table 1, ¹²⁵I-[D-Trp]⁶LHRH used as labelled ligand
[7] = Table 2, ¹²⁵I-[D-Trp]⁶ LHRH used as the labelled ligand

| Molecule | Affinity Constant Ka1 [1, 6] | % Inhibition at 24 hrs ([2]; Dose 1 µg/ml) | % Inhibition at 24 hrs ([2]; Dose 10 µg/ml) | Affinity Constant Ka1 [1, 7] | %Ovulation Blockade [3] | further results |
| --- | --- | --- | --- | --- | --- | --- |
| pGlu-His-Trp-Ser-Tyr-D-Lys(MTX)-Leu-Arg-Pro-Gly-NH₂ [2A] | 5.42 nM⁻¹ | – | – | – | – | Affinity Constant Ka2 [1, 6]: 1.59 µM⁻¹ |
| Ac-Nal(2)-D-Phe(4Cl)-D-Trp-Ser-Arg-D-Lys[A₂pr(HMAQG)₂]-Leu-Arg-Pro-D-Ala-NH₂ [compound 3] | – | 3% | 11% | 7.05 nM⁻¹ | 0% | Affinity Constant Ka2 [1, 7]: 8.6 µM⁻¹ |
| pGlu-His-Trp-Ser-Tyr-D-Lys[Ahx-A₂bu(SAL)₂(Cu)]-Leu-Arg-Pro-Gly-NH₂ | – | – | – | – | – | inhibits the [³H]thymidine incorporation into DNA [4]: 87% |
| CC(C)C[C@H](NC(=O)[C@@H](CCCCNC(=O)CCCC(=O)OCc1ccc2c(c1)C(=O)c1ccccc1C2=O)NC(=O)[C@H](Cc1ccc(O)cc1)NC(=O)[C@H](CO)NC(=O)[C@H](Cc1c[nH]c2ccccc12)NC(=O)[C@H](Cc1c[nH]cn1)NC(=O)[C@@H]1CCC(=O)N1)C(=O)N[C@@H](CCCNC(=N)N)C(=O)N1CCC[C@H]1C(=O)NCC(N)=O [compound 1, pGlu-His-Trp-Ser-Tyr-D-Lys(HMAQG)-Leu-Arg-Pro-Gly-NH₂] | – | – | – | – | – | Relative Activity [5]: 35 |
| Ac-Nal(2)-D-Phe(4Cl)-D-Pal(3)-Ser-Arg-D-Lys[A₂pr(HMAQG)₂]-Leu-Arg-Pro-D-Ala-NH₂ [compound 4] | – | 15% | 40** % | 2.28 nM⁻¹ | 40% | % Inhibition at 4 hrs ([2]; Dose 1 µg/ml): 31** %; % Inhibition at 4 hrs ([2]; Dose 10 µg/ml): 28** % |
| pGlu-His-Trp-Ser-Tyr-D-Lys(MTX)-Leu-Arg-Pro-Gly-NH₂ [2B] | 0.63 nM⁻¹ | – | – | – | – | – |

Reference: patent publication EP0450461B1, “LHRH Analogs” (The Administrators of The Tulane Educational Fund, priority 1990, dated 1991)
